Laboratory results taken from ChEMBL document CHEMBL5360660, “Cyclin-Dependent Kinase Degradation via E3 Ligase Binding for Potential Disease Modulation in Cancer Treatment” (ACS Med Chem Lett, 2023).

Key:
[1] = target: Cyclin-dependent kinase 5 (Homo sapiens, UniProt Q00535); assay: Binding affinity to CDK5 (unknown origin) assessed as dissociation constant
[2] = target: Cyclin-dependent kinase 9 (Homo sapiens, UniProt P50750); assay: Binding affinity to CDK9 (unknown origin) assessed as dissociation constant
Cyclin-dependent kinase 9, sequence (P50750 whole entry): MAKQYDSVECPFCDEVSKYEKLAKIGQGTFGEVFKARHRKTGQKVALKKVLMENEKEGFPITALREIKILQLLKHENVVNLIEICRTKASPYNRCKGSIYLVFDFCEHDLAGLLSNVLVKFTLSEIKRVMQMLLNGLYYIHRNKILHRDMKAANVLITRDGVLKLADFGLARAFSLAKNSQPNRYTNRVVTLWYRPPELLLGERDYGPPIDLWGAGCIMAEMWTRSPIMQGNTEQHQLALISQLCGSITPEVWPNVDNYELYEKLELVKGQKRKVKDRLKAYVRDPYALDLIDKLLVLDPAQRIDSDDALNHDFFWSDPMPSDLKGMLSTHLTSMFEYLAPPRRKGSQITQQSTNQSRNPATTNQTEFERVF

[3] = target: Protein cereblon/Cyclin-dependent kinase 9 (Homo sapiens, UniProt P50750+Q96SW2); assay: PROTAC activity at CRBN/CDK9 in HEK293 cells assessed as induction of CDK9 degradation incubated for 24 hrs by Western blotting analysis; format: cell-based
Protein cereblon/Cyclin-dependent kinase 9, sequence (P50750 whole entry): as above
Protein cereblon/Cyclin-dependent kinase 9, sequence (Q96SW2 whole entry): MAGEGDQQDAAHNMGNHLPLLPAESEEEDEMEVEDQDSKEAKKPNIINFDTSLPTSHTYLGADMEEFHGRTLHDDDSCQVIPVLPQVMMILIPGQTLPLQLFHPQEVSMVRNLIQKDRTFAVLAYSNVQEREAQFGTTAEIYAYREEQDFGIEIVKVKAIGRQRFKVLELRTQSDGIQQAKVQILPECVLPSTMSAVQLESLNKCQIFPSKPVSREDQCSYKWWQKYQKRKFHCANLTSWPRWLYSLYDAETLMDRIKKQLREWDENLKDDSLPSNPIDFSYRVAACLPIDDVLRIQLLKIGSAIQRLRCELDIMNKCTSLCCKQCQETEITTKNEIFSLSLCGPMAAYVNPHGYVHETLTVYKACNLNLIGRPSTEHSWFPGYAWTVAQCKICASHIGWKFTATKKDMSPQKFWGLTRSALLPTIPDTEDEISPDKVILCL

[4] = target: Protein cereblon/Cyclin-dependent kinase 5 (Homo sapiens, UniProt Q00535+Q96SW2); assay: PROTAC activity at CRBN/CDK5 in HEK293 cells assessed as induction of CDK5 degradation incubated for 24 hrs by Western blotting analysis; format: cell-based
Protein cereblon/Cyclin-dependent kinase 5, sequence (Q00535 whole entry): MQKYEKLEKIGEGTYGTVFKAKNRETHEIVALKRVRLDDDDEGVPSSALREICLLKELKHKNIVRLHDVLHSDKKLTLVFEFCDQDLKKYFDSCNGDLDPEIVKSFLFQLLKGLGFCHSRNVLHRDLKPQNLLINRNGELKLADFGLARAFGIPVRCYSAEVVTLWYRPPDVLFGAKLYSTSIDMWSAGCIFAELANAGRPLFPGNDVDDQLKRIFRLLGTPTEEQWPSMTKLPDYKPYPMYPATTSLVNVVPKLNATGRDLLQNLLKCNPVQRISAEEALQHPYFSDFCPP
Protein cereblon/Cyclin-dependent kinase 5, sequence (Q96SW2 whole entry): as the sequence (Q96SW2 whole entry) above

[5] = target: Protein cereblon/Cyclin-dependent kinase 2 (Homo sapiens, UniProt P24941+Q96SW2); assay: PROTAC activity at CRBN/CDK2 in HEK293 cells assessed as induction of CDK2 degradation incubated for 24 hrs by Western blotting analysis; format: cell-based

Cyclin-dependent kinase 5, sequence (Q00535 whole entry): as the sequence (Q00535 whole entry) above

Row | Kd [1] [µM] | Kd [2] [µM] | IC50 [3] [µM] | IC50 [4] [µM] | IC50 [5] [µM] | SMILES
1 | 0.23 | 1.06 | 1.08 | 0.032 |  | O=C1CCC(N2C(=O)c3cccc(OCCCCCOc4ccc(CC(=O)Nc5cc(C6CCC6)n[nH]5)cc4)c3C2=O)C(=O)N1 (configuration not stated)
2 |  |  | 0.53 | 0.007 | 0.155 | O=C(CCCOc1ccc(CC(=O)Nc2cc(C3CCC3)[nH]n2)cc1)NCCCCNc1cccc2c1C(=O)N(C1CCC(=O)NC1=O)C2=O (configuration not stated)
